Measured values from patent publication US12612409B2, “Pyrrolopyrimidines as CFTR potentiators” (Cystic Fibrosis Foundation, priority 2016, dated 2026).

Key:
[1] = molecular target: T1, CFTR in F508del/F508del primary CF hBE cells (Homo sapiens, UniProt P13569, DEL508-508); assay: Ussing chamber electrophysiology assay of CFTR potentiation in F508del/F508del CF bronchial epithelial cells (27° C.); type: cell-based
T1 construct: Primary cystic fibrosis human bronchial epithelial (CF hBE) cells were expanded and cultured; endogenous in cells; host or cells: primary CF human bronchial epithelial cells, genotype F508del/F508del
Source text: • SHELXTL, Version 5.1, Bruker AXS, 1997. • PLATON, A. L. Spek, J. Appl. Cryst. 2003, 36, 7-13. • MERCURY, C. F. Macrae, P. R. Edington, P. McCabe, E. Pidcock, G. P. Shields, R. Taylor, M. Towler and J. van de Streek, J. Appl. Cryst. 39, 453-457, 2006. • OLEX2, Dolomanov, O. V.; Bourhis, L. J.; Gildea, R. J.; Howard, J. A. K.; Puschmann, H., (2009). J. Appl. Cryst., 42, 339-341. • R. W. W. Hooft et al. J. Appl. Cryst. (2008). 41. 96-103. • H. D. Flack, Acta Cryst. 1983, A39, 867-881. Using Chamber Electrophysiology Assay of CFTR Potentiation in CF Bronchial Epithelial Cells
Primary cystic fibrosis human bronchial epithelial (CF hBE) cells were expanded and cultured according to published methods (Neuberger et al., Ch. 4 of Cystic Fibrosis, Methods in Molecular Biology vol. 741, pp. 39-54 (2011)). Well-differentiated cells (>30 days at air/liquid interface) on Snapwell filters (Corning Costar, cat. no. 3801) were mounted in Ussing chambers (Physiologic Instruments, Inc., San Diego, CA). […] HEPES buffered physiological saline (composition (in mM): 137 NaCl, 4 KCl, 1 MgCl2, 1.8 CaCl2), 10 HEPES Na) was used in both apical and basolateral chambers. Chambers were bubbled with air to promote mixing and the voltage was clamped to zero. Amiloride (30 uM), forskolin (10 uM), test compound (4 increasing concentrations), and CFTRinh-172 (20 uM) were added sequentially with 20-25 minutes between additions. Short-circuit currents were acquired and analyzed using LabScribe2. Test compound responses were scaled relative to responses for DMSO (0%) and the maximal response of a positive control potentiator (100%).

[2] = molecular target: T2, recombinant F508del V470 CFTR in Fischer rat thyroid (FRT) cells (Homo sapiens, UniProt P13569, DEL508-508); assay: FRT ion flux assay of F508del CFTR potentiation; type: cell-based; details: FRT cells expressing F508del V470 CFTR, forskolin 20 uM, 27° C. pre-incubation
T2 construct: expressed in transfected cells
Summary of the method: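 FRT cells co-expressing F508del V470 CFTR and halide-sensitive YFP, temperature-corrected at 27° C for 16-24 h, then treated 30 min with compound plus 20 uM forskolin. Iodide addition quenches YFP, read after ~21 s; ratio scaled to DMSO (0%) and positive control potentiator (100%).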

T2 sequence (P13569 with tags, fused parts or gaps DEL508-508): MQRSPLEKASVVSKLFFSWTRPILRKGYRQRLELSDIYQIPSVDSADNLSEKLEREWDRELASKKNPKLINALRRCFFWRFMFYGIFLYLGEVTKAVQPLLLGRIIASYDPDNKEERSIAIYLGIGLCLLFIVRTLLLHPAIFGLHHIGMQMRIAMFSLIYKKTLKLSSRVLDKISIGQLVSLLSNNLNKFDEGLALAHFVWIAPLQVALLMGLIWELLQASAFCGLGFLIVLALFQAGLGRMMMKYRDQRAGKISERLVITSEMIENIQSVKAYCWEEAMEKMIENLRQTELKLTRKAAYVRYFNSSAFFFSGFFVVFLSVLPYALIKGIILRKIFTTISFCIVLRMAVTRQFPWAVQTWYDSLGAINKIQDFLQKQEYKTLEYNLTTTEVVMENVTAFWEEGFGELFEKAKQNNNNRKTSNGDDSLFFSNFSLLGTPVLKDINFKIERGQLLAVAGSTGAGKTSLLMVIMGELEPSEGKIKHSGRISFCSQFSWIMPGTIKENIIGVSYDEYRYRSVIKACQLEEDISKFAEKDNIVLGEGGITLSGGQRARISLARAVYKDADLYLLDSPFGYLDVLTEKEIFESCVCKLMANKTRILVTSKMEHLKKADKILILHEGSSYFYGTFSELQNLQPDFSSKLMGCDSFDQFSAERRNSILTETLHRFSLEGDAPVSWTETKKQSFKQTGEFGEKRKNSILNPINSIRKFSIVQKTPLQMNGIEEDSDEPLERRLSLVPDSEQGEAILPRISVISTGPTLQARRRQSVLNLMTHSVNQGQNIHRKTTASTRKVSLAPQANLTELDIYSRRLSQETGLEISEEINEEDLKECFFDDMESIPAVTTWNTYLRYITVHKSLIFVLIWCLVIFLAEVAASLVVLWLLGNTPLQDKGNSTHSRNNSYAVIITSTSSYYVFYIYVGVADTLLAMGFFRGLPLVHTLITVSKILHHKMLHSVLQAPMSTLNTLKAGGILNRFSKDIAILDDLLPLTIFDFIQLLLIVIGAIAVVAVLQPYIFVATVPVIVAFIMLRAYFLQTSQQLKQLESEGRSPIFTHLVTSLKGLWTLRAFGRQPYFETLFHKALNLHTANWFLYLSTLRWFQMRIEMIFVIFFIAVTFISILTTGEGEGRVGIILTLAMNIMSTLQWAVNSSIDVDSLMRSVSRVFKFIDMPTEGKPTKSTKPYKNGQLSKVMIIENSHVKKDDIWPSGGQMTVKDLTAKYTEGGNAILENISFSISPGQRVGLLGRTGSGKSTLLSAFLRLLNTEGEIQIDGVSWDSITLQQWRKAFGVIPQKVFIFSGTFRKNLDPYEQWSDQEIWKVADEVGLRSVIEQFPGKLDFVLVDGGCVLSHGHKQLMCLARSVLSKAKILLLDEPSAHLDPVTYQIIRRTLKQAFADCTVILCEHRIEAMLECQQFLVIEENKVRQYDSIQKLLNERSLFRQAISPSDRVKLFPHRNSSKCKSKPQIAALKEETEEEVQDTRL
T1 sequence (P13569 with tags, fused parts or gaps DEL508-508): as above

SMILES	EC50 [1] [µM]	EC50 [2] [µM]
CC(c1cn(-c2ccccc2F)nn1)n1cc(-c2ccc(OC3CC3)cc2)c2c(N)ncnc21 (single isomer, unassigned; enantiomer 1) [Example 117, (+) 5-[4-(Cyclopropyloxy)phenyl]-7-{1-[1-(2-fluorophenyl)-1H-1,2,3-triazol-4-yl]ethyl}-7H-pyrrolo[2,3-d]pyrimidin-4-amine, enantiomer 1]	0.0493	0.0588
CC(c1cn(-c2ccccc2F)nn1)n1cc(-c2ccc(OC3CC3)nc2)c2c(N)ncnc21 (single isomer, unassigned; enantiomer 1) [Example 119, (−) 5-[6-(Cyclopropyloxy)pyridin-3-yl]-7-{1-[1-(2-fluorophenyl)-1H-1,2,3-triazol-4-yl]ethyl}-7H-pyrrolo[2,3-d]pyrimidin-4-amine, enantiomer 1]	0.187	0.677
CC(c1cn(-c2ccccc2F)nn1)n1cc(-c2cc[nH]n2)c2c(N)ncnc21 (single isomer, unassigned; enantiomer 1) [Example 121, 7-{1-[1-(2-Fluorophenyl)-1H-1,2,3-triazol-4-yl]ethyl}-5-(1H-pyrazol-3-yl)-7H-pyrrolo[2,3-d]pyrimidin-4-amine, enantiomer 1]	0.0892	0.03
CC(c1cn(-c2ccc(F)cc2F)nn1)n1cc(-c2cnc(C(F)(F)F)nc2)c2c(N)ncnc21 (single isomer, unassigned; enantiomer 1) [Example 123, 7-{1-[1-(2,4-Difluorophenyl)-1H-1,2,3-triazol-4-yl]ethyl}-5-[2-(trifluoromethyl)pyrimidin-5-yl]-7H-pyrrolo[2,3-d]pyrimidin-4-amine, enantiomer 1]	0.0505	0.0216
CCC(c1cn(-c2ccccc2)nn1)n1cc(-c2ccc(OC)nc2)c2c(N)ncnc21 (single isomer, unassigned; enantiomer 1) [Example 125, 5-(6-Methoxypyridin-3-yl)-7-[1-(1-phenyl-1H-1,2,3-triazol-4-yl)propyl]-7H-pyrrolo[2,3-d]pyrimidin-4-amine, enantiomer 1]	0.199	0.395
CCC(c1cn(-c2ccccc2)nn1)n1cc(-c2cncnc2OC)c2c(N)ncnc21 (single isomer, unassigned; enantiomer 1) [Example 127, (−) 5-(4-Methoxypyrimidin-5-yl)-7-[1-(1-phenyl-1H-1,2,3-triazol-4-yl)propyl]-7H-pyrrolo[2,3-d]pyrimidin-4-amine, enantiomer 1]	0.448	0.408
CCC(c1cn(-c2ccccc2)nn1)n1cc(-c2cnc(C(F)(F)F)nc2)c2c(N)ncnc21 (single isomer, unassigned; enantiomer 1) [Example 129, 7-[1-(1-Phenyl-1H-1,2,3-triazol-4-yl)propyl]-5-[2-(trifluoromethyl)pyrimidin-5-yl]-7H-pyrrolo[2,3-d]pyrimidin-4-amine, enantiomer 1]	0.0107	0.00846
CCC(c1cn(-c2ccccc2F)nn1)n1cc(-c2ccc(Cl)cc2)c2c(N)ncnc21 (single isomer, unassigned; enantiomer 1) [Example 131, 5-(4-Chlorophenyl)-7-{1-[1-(2-fluorophenyl)-1H-1,2,3-triazol-4-yl]propyl}-7H-pyrrolo[2,3-d]pyrimidin-4-amine, enantiomer 1]	0.282	0.623
CCC(c1cn(-c2ccccc2F)nn1)n1cc(-c2cncnc2OC)c2c(N)ncnc21 (single isomer, unassigned; enantiomer 1) [Example 133, (−) 7-{1-[1-(2-Fluorophenyl)-1H-1,2,3-triazol-4-yl]propyl}-5-(4-methoxypyrimidin-5-yl)-7H-pyrrolo[2,3-d]pyrimidin-4-amine, enantiomer 1]	0.721	0.918
CCC(c1cn(-c2ccccc2F)nn1)n1cc(-c2nccnc2OC)c2c(N)ncnc21 (single isomer, unassigned; enantiomer 1) [Example 135, (−) 7-{1-[1-(2-Fluorophenyl)-1H-1,2,3-triazol-4-yl]propyl}-5-(3-methoxypyrazin-2-yl)-7H-pyrrolo[2,3-d]pyrimidin-4-amine, enantiomer 1]	0.0653	0.203
CCC(c1cn(-c2ccccc2F)nn1)n1cc(-c2cnc(C(F)(F)F)nc2)c2c(N)ncnc21 (single isomer, unassigned; enantiomer 1) [Example 137, 7-{1-[1-(2-Fluorophenyl)-1H-1,2,3-triazol-4-yl]propyl}-5-[2-(trifluoromethyl)pyrimidin-5-yl]-7H-pyrrolo[2,3-d]pyrimidin-4-amine, enantiomer 1]	0.0103	0.00586
CCC(c1cn(-c2ccccc2F)nn1)n1cc(-c2cc(F)cnc2OC)c2c(N)ncnc21 (single isomer, unassigned; enantiomer 1) [Example 139, (+) 5-(5-Fluoro-2-methoxypyridin-3-yl)-7-{1-[1-(2-fluorophenyl)-1H-1,2,3-triazol-4-yl]propyl}-7H-pyrrolo[2,3-d]pyrimidin-4-amine, enantiomer 1]	0.003	0.00571
CCC(c1cn(-c2ccccc2F)nn1)n1cc(-c2ccc(OC(F)F)nc2)c2c(N)ncnc21 (single isomer, unassigned; enantiomer 1) [Example 141, (−) 5-[6-(Difluoromethoxy)pyridin-3-yl]-7-{1-[1-(2-fluorophenyl)-1H-1,2,3-triazol-4-yl]propyl}-7H-pyrrolo[2,3-d]pyrimidin-4-amine, enantiomer 1]	0.133	0.277
CCC(c1cn(-c2ccccc2F)nn1)n1cc(-c2cnc(C(F)F)nc2)c2c(N)ncnc21 (single isomer, unassigned; enantiomer 1) [Example 143, 5-[2-(Difluoromethyl)pyrimidin-5-yl]-7-{1-[1-(2-fluorophenyl)-1H-1,2,3-triazol-4-yl]propyl}-7H-pyrrolo[2,3-d]pyrimidin-4-amine, enantiomer 1]	0.026	0.0105
CCC(c1cn(-c2ccccc2F)nn1)n1cc(-c2cnc(N(C)C)nc2)c2c(N)ncnc21 (single isomer, unassigned; enantiomer 1) [Example 145, 5-[2-(Dimethylamino)pyrimidin-5-yl]-7-{1-[1-(2-fluorophenyl)-1H-1,2,3-triazol-4-yl]propyl}-7H-pyrrolo[2,3-d]pyrimidin-4-amine, enantiomer 1]	0.0297	0.026
CCC(c1cn(-c2ccc(F)cc2)nn1)n1cc(-c2cncnc2OC)c2c(N)ncnc21 (single isomer, unassigned; enantiomer 1) [Example 149, (+) 7-{1-[1-(4-Fluorophenyl)-1H-1,2,3-triazol-4-yl]propyl}-5-(4-methoxypyrimidin-5-yl)-7H-pyrrolo[2,3-d]pyrimidin-4-amine, enantiomer 1]	0.0453	0.0289
CCC(c1cn(-c2ccc(F)c(F)c2)nn1)n1cc(-c2cncnc2OC)c2c(N)ncnc21 (single isomer, unassigned; enantiomer 1) [Example 151, (+) 7-{1-[1-(3,4-Difluorophenyl)-1H-1,2,3-triazol-4-yl]propyl}-5-(4-methoxypyrimidin-5-yl)-7H-pyrrolo[2,3-d]pyrimidin-4-amine, enantiomer 1]	0.0355	0.0341
CCC(c1cn(-c2ccc(F)c(F)c2)nn1)n1cc(-c2cnc(C(F)(F)F)nc2)c2c(N)ncnc21 (single isomer, unassigned; enantiomer 1) [Example 153, 7-{1-[1-(3,4-Difluorophenyl)-1H-1,2,3-triazol-4-yl]propyl}-5-[2-(trifluoromethyl)pyrimidin-5-yl]-7H-pyrrolo[2,3-d]pyrimidin-4-amine, enantiomer 1]	0.0198	0.059
CCC(c1cn(-c2ccc(F)c(F)c2)nn1)n1cc(-c2cc(F)cnc2OC)c2c(N)ncnc21 (single isomer, unassigned; enantiomer 1) [Example 155, 7-{1-[1-(3,4-Difluorophenyl)-1H-1,2,3-triazol-4-yl]propyl}-5-(5-fluoro-2-methoxypyridin-3-yl)-7H-pyrrolo[2,3-d]pyrimidin-4-amine, enantiomer 1]	0.00917	0.0386
